Experimental data: patent US20190055231A1, “BACE1 INHIBITORS” (Hoffmann-La Roche Inc., priority 2016, published 2019)

Key:
[1] = system: Aβ40 in brain of wild-type mice; experiment: Mouse acute in vivo model (inhibition of Aβ40 in brain of wild-type mice); conditions: 4 h post dose; for Brain Aβ-lowering 3 mg/kg: single p.o. dose 3 mg/kg; for Brain Aβ-lowering 10 mg/kg: single p.o. dose 10 mg/kg; for Brain Aβ-lowering 30 mg/kg: single p.o. dose 30 mg/kg
Procedure: Mouse Acute In Vivo Model (Inhibition of Aβ40 in Brain of Wild-Type Mice)
Single Dose Efficacy in Mice
The mouse single dose efficacy was measured in brain homogenate from C57Bl/6J wildtype mice after DEA extraction as described in H. Hilpert et al., J. Med. Chem. 2013, 56, 3980-3995 (dx.doi.org/10.1021/jm400225m).
Aβ 40 concentration was determined after solid phase extraction as described above and following a modified protocol from Perkin-Elmer with a commercially available antibody against the N-terminal part of rat Aβ (252Q6, Invitrogen cat. No. AMB0062) and an in-house C-terminal specific anti-Aβ40 antibody (BAP-24, Brockhaus M. et al., J. Neuroreport, 1998, 9:1481-1486) bound to acceptor beads (PerkinElmer, Cat. 6772002). 20 μl analyte per well (reconstituted extracts or standard) were loaded to a White Optiplate-96 (Perkin-Elmer, Cat#6005290). Then, a mixture of biotinylated BAP24 antibody (1:2000 diluted at approximately 1 nM final concentration) and antibody 252Q6 bound to AlphaLISA acceptor beads (Perkin-Elmer cat. No. 6772002 (1:100 diluted, 10 ug/mL final concentration) in 1× AlphaLISA buffer (Perkin-Elmer, AL000F) was added. After 1 hour room temperature incubation in the dark, 20 uL of a streptavidin coated donor beads dilution (40 μg/mL) were added and incubated for 30 minutes in the dark. Light emission at 615 nm was recorded using an EnVision AlphaScreen Reader (Perkin-Elmer). Levels of Aβ40 were calculated as percentage of the baseline samples from non-treated animals.
Aβ40 lowering was determined after oral administration in wild-type mice (C57Bl/6J mice, n=3-4) 4 h post dosing. Wild-type mice were used as they have a normal physiological level of APP expression and are thus expected to provide a better physiological model for Aβ-peptide production than APP-transgenic organisms. In vivo efficacy is a key factor for appropriate drug candidates, being more relevant than in vitro activities.

Human P-gp = Human P-gp (Homo sapiens, UniProt P08183); experiment: P-gp transport assay (human); assay type: in vitro ADME; conditions: efflux ratio
Chain of Human P-gp (P08183 whole entry): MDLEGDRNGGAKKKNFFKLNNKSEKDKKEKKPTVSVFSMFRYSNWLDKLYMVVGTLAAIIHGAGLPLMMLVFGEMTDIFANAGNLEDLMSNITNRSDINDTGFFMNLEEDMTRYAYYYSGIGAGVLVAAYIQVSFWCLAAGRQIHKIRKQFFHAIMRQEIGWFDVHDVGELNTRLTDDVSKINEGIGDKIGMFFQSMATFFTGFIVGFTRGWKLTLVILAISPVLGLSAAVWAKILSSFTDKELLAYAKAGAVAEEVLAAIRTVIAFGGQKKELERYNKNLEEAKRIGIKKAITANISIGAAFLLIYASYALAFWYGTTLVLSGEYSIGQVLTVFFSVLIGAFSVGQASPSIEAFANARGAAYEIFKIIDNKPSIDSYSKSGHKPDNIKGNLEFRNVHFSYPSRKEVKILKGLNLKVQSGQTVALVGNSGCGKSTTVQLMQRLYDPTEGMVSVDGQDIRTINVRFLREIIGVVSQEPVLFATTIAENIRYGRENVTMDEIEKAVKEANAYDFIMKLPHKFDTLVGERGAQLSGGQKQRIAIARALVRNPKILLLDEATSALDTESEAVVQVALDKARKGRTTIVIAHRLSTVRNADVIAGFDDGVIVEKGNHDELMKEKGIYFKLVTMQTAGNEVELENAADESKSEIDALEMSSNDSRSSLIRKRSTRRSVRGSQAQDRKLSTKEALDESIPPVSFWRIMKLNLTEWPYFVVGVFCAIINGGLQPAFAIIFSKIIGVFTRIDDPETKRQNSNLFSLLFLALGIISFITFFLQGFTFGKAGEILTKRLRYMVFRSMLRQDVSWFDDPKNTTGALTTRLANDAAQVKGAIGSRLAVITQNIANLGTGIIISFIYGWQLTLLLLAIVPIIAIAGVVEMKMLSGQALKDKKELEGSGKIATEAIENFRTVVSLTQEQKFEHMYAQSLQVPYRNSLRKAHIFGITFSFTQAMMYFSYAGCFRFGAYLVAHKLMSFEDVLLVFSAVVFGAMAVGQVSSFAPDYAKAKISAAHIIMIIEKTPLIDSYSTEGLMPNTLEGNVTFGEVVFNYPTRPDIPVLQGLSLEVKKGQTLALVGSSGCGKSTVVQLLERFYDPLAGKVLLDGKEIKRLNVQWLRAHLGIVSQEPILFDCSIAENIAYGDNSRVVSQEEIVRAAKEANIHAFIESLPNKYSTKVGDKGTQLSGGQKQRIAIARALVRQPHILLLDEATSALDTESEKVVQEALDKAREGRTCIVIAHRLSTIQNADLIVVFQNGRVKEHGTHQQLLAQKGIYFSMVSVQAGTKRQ
Source text: (§1) P-Gp Transport Assay (Human and Mouse) (P-Gp Assay)
(§2) In the assay of the P-gp efflux ratio ER as described hereinabove, a compound with ER<2.5 is regarded most suitable. In addition, compounds with low hERG channel binding are suitable as well.

hERG channel = hERG channel (Homo sapiens, UniProt Q12809); experiment: hERG IC20 assay; assay type: cell-based; conditions: for IC20: human, hERG IC20 assay
Chain of hERG channel (Q12809 whole entry): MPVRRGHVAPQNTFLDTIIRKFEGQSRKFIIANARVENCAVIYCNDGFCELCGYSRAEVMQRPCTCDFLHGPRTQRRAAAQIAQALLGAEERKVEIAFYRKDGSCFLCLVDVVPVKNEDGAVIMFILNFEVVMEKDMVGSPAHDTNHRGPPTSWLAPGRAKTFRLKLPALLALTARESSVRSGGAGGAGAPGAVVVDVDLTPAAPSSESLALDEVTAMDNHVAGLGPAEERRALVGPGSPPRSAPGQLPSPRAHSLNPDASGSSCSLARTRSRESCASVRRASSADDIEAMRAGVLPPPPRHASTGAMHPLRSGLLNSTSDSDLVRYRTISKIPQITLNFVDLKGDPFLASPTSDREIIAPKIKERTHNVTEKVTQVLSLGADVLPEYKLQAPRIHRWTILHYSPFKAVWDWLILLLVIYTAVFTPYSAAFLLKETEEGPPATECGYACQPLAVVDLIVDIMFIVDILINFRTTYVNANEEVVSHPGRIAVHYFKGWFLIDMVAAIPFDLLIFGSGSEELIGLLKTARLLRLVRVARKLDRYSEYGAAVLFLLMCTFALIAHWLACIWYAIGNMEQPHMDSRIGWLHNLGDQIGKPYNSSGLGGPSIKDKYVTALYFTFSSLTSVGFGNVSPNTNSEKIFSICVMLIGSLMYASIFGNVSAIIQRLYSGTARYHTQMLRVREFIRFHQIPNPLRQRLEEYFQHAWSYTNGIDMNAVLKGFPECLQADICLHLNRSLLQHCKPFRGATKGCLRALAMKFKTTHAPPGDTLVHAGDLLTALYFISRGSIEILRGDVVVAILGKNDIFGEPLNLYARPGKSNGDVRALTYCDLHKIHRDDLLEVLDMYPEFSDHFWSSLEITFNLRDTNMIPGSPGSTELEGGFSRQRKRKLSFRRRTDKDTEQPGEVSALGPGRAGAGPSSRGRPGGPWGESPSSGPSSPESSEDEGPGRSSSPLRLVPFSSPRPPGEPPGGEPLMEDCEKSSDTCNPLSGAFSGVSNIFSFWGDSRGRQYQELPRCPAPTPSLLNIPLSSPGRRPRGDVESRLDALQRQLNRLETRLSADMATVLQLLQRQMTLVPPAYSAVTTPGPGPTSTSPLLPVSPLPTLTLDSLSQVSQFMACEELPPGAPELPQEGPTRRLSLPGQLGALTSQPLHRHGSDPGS
Source text: The methods to determine the hERG IC20 values was described in Industrializing electrophysiology: HT automated patch clamp on SyncroPatch® 96 using instant frozen cells. Polonchuk L., Methods Mol Biol. 2014; 1183:81-92. (doi: 10.1007/978-1-4939-1096-0_5.) PMID:25023303
QT prolongation is a cardiovascular risk caused by drug candidates which inhibit the hERG channel (human ether a go-go). A sufficient safety margin between the hERG IC20 value and the free plasma concentration necessary to achieve the envisaged thereapeutic effects is desired (ICH. The nonclinical evaluation of the potential for delayed ventricular repolarization (QT interval prolongation) by human pharmaceuticals (S7B), issued as CPMP/ICH/423/02, adopted by CHMP in May 2005 (http://www.ich.org/cache/compo/276-254-1.html; Redfern W S, Carlsson L, Davis A S, Lynch W G, MacKenzie I, Palethorpe S, Siegl P K, Strang I, Sullivan A T, Wallis R, Camm A J, Hammond T G. Relationships between preclinical cardiac electrophysiology, clinical QT interval prolongation and torsade de pointes for a broad range of drugs: evidence for a provisional safety margin in drug development. Cardiovasc Res. 2003 Apr. 1; 58(1):32-45.)). Reducing the activity against efflux transporters expressed at the blood-brain-barrier such as P-glycoprotein P-gp, might result in reduction of the free plasma concentration by optimizing brain penetration.

Mouse P-gp = Mouse P-gp (Mus musculus, UniProt P21447); experiment: P-gp transport assay (mouse); assay type: in vitro ADME; conditions: efflux ratio
Chain of Mouse P-gp (P21447 whole entry): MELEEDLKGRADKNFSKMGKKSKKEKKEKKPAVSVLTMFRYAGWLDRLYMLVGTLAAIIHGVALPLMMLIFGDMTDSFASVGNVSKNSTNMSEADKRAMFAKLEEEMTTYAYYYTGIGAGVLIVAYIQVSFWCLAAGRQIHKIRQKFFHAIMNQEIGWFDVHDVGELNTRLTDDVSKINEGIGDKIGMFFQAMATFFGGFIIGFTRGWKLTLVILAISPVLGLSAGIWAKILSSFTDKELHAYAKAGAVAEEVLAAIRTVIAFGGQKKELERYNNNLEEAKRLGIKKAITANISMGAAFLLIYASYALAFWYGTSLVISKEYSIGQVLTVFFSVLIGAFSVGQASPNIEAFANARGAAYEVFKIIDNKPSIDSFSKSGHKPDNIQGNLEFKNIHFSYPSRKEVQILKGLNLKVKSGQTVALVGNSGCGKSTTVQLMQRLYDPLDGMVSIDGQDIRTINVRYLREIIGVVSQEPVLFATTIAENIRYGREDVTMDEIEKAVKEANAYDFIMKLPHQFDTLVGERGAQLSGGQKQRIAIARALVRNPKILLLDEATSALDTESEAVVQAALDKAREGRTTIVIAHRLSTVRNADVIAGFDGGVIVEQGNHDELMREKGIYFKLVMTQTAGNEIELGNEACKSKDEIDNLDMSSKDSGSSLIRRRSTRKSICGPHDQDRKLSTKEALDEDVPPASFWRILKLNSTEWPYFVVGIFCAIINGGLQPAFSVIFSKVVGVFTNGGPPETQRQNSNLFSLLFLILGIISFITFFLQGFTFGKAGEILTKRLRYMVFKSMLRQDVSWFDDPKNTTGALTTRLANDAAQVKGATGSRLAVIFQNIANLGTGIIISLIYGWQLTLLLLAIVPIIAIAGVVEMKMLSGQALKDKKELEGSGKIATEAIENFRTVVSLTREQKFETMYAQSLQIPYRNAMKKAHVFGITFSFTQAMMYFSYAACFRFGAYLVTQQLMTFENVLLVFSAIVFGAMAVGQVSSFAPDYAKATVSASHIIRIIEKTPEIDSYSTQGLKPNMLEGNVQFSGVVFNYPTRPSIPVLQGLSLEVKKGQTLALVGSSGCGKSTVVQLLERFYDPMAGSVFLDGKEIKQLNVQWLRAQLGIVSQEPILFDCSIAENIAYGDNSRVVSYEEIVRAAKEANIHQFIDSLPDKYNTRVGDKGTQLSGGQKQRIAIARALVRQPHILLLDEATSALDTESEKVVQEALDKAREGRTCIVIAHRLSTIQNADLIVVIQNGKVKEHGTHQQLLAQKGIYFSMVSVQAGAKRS
Source text: as §1, §2

BACE1 [2] = target: T1, BACE1 (Homo sapiens, UniProt P56817); experiment: Cellular Aβ-lowering assay (Abeta 40 AlphaLISA, HEK293 APP cells); assay type: cell-based; set-up: endogenous in cells; host or cells: HEK293 APP cells
T1 sequence (P56817 46-501): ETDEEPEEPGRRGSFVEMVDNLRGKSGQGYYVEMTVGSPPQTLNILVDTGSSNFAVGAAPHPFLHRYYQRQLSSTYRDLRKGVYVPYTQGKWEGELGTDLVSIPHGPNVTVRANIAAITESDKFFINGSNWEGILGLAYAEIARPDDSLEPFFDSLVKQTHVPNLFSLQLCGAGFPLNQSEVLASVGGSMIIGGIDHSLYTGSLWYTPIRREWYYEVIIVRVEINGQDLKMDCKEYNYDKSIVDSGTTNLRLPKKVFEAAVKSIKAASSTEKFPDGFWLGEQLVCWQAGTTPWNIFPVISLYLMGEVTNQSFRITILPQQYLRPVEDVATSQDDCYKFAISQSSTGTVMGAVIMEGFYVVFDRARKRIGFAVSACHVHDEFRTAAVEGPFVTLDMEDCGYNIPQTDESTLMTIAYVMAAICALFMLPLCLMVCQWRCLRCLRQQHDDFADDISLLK
Procedure: Cellular Aβ-Lowering Assay:
The Abeta 40 AlphaLISA Assay can be used. The HEK293 APP cells were seeded in 96 well Microtiter plates in cell culture medium (Iscove's, plus 10% (v/v) fetal bovine serum, penicillin/streptomycin) to about 80% confluency and the compounds were added at a 3× concentration in ⅓ volume of culture medium (final DMSO concentration was kept at 1% v/v). After 18-20 hrs incubation at 37° C. and 5% CO2 in a humidified incubator, the culture supernatants were harvested for the determination of AP 40 concentrations using Perkin-Elmer Human Amyloid beta 1-40 (high specificity) Kit (Cat#AL275C).
In a Perkin-Elmer White Optiplate-384 (Cat#6007290), 2 ul culture supernatants were combined with 2 μl of a 10× AlphaLISA Anti-hAP Acceptor beads+Biotinylated Antibody Anti-Aβ 1-40 Mix (50 μg/mL/5 nM). After 1 hour room temperature incubation, 16 μl of a 1.25× preparation of Streptavidin (SA) Donor beads (25 μg/mL) were added and incubated for 30 minutes in the Dark. Light Emission at 615 nm was then recorded using EnVision-Alpha Reader. Levels of AP 40 in the culture supernatants were calculated as percentage of maximum signal (cells treated with 1% DMSO without inhibitor). The IC50 value were calculated using the Excel XLfit software.
Cellular Aβ-Lowering Assay (Cell-Based Assay)
(§3) The determination of BACE1 activity can be either measured by using an enzymatic cell-free fluorescence assay (BACE1 cell free, table 2) or by a whole cell assay using HEK293 APP cells (Cellular Aβ-lowering, table 2). Both assays are suitable to determine BACE1 inhibition.

BACE2 = target: T2, BACE2 (Homo sapiens, UniProt Q9Y5Z0); experiment: BACE2 cell-free assay (BACE2 enzyme assay); assay type: biochemical; conditions: BACE2 IC50 divided by BACE1 IC50, cell free assays
T2 sequence (Q9Y5Z0 63-518): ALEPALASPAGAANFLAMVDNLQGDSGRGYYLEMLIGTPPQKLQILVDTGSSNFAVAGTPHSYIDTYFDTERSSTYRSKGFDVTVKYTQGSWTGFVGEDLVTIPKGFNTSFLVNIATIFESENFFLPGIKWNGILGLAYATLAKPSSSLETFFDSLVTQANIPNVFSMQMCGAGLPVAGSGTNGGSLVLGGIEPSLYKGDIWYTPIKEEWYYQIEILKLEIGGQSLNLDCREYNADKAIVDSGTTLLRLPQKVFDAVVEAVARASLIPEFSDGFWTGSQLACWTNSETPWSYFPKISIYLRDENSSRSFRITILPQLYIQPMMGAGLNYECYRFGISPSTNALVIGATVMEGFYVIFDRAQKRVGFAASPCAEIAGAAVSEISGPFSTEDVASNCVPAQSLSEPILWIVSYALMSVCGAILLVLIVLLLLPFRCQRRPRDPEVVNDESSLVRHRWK
Source text: BACE2 Cell-Free Assay (BACE2 Enzyme Assay)
Selectivity versus related targets is important in terms of safety of a drug candidate. BACE2 is a close homolog of BACE1. BACE2 was recently reported to play a crucial role in pigmentation of the skin by processing pigment cell-specific melanocyte protein (PMEL). (Proc Natl Acad Sci USA. 2013 Jun. 25; 110(26):10658-63. doi: 10.1073/pnas.1220748110. Epub 2013 Jun. 10). It is believed that PMEL contributes in melanogenesis. Therefore, selectivity versus BACE2 is advantageous when it comes to pigmentation of the skin. The selectivity ratio of BACE2/BACE1 IC50 was calculated by dividing the BACE2 IC50 value by the BACE1 IC50 value determined each in the cell free assay. […] This implies a 3-fold improvement of example 1 compared to comparators 4 and 5.

BACE1 [3] = target: T1, BACE1; experiment: BACE1 cell-free assay (BACE1 enzyme assay); assay type: biochemical
Source text: BACE1 Cell-Free Assay (BACE1 Enzyme Assay)
as §3

[4] = HEK293 APP cells, Aβ40 in supernatant, read-out: BACE1 cell act. Aβ40 IC50

Human P-gp ER (Human P-gp) | Mouse P-gp ER (Mouse P-gp) | IC50 (BACE1 [2]; [4]) [µM] | BACE2/BACE1 IC50 ratio (BACE2) | IC50 (BACE1 [3]) [µM] | IC50 (BACE1 [2]; read-out: cellular potency) [µM] | Compound | Brain Aβ-lowering 3 mg/kg [1] [%] | Brain Aβ-lowering 3 mg/kg ([1]; listed as comparator 5) [%] | Brain Aβ-lowering 10 mg/kg [1] [%] | higher affinity to hERG than example 1 (hERG channel) [fold] | IC20 (hERG channel) [µM] | Brain Aβ-lowering 30 mg/kg [1] [%] | IC20 (hERG channel; instant frozen cells (hERG channel, automated patch clamp)) [µM]
3.3 | 8.1 |  |  |  |  | Cc1cc(C#N)cnc1C(=O)Nc1ccc(F)c([C@]2(C)C[C@@H](C(F)(F)F)OC(N)=N2)n1 [Comparator 5] | 7 | 7 | 70 | 5.3 | 0.44 |  | 
 |  |  |  |  |  | C[C@]1(c2nc(NC(=O)c3ccc(C#N)cn3)ccc2F)N=C(N)O[C@@H](C(F)(F)F)[C@@H]1F [Comparator 7] |  |  |  |  |  | 70 | 
1.4 | 1.3 | 0.324 | 3.0 | 0.029 |  | C[C@]1(c2nc(NC(=O)c3ccc(C#N)cn3)ccc2F)N=C(N)O[C@H](C(F)(F)F)C1(F)F [Comparator 1, N-(6-((4R,6S)-2-Amino-5,5-difluoro-4-methyl-6-(trifluoromethyl)-5,6-dihydro-4H-1,3-oxazin-4-yl)-5-fluoropyridin-2-yl)-5-cyanopicolinamide] | 2 |  | 4 |  |  | 66 | 
 |  | 37.4 |  |  | > 35 | C[C@]1(c2nc(NC(=O)c3ccc(C#N)cn3)ccc2F)N=C(N)O[C@@H](C(F)(F)F)C1(F)F [Comparator 3, N-(6-((4R,6R)-2-Amino-5,5-difluoro-4-methyl-6-(trifluoromethyl)-5,6-dihydro-4H-1,3-oxazin-4-yl)-5-fluoropyridin-2-yl)-5-cyanopicolinamide] |  |  |  |  |  |  | 
 | 1.4 | 0.203 | 3.0 | 0.019 |  | Cc1cc(C#N)cnc1C(=O)Nc1ccc(F)c([C@@]2(C)N=C(N)O[C@H](C(F)(F)F)C2(F)F)n1 [Comparator 2, N-(6-((4R,6S)-2-Amino-5,5-difluoro-4-methyl-6-(trifluoromethyl)-5,6-dihydro-4H-1,3-oxazin-4-yl)-5-fluoropyridin-2-yl)-5-cyano-3-methylpicolinamide] | 10 |  | 42 |  |  |  | 
 |  | 0.004 |  | 0.033 |  | C[C@@]1(c2nc(NC(=O)c3ccc(C#N)cn3)ccc2F)C[C@@H](C(F)(F)F)OC(N)=N1 [Comparator 4] |  |  |  |  | 0.04 |  | 0.04
